The source of these data is patent US20040259766A1, “Use of glutamate, glutamate derivatives or metabolites, glutamate analogues or mixtures thereof for the manufacture of a composition for the treatment of osteoporosis” (priority 2004, published 2004).

The test system of assay [1] is humerus and femur. The assay can be described thus: Three point bending test (Instron 4302) of humerus and femur of piglets given Ala-Gln or AKG orally. Conditions: piglets at 35 days of postnatal life; 0.4 g/kg b.w. oral once a day; mean ± SEM. Format: in vivo, pig. How it is done: (§1) All piglets suckled sow milk before weaning. After weaning at the age of 28 days piglets were fed ad libitum with a standard mixture Premix prestarter (PP) (Food plant-Motycz, Poland) and free access to water was allowed. Piglets were allotted to three experimental trials:
(§2) 2—Second group, receiving 0.4 g/kg/b.w. of L-alanyl-L-glutamine (ala-gin), (2 ml solution/kg b.w.)
(§3) At the age of 35 days, piglets were sacrificed, eviscerated and bones were sampled.
(§4) Using Instron 4302 apparatus and applying three point bending test as presented in FIG. 1, the following properties of the bones were determined from curves showing the relation between load and deflection: […]

Assay [2] concerns ribs. The assay can be described thus: Three point bending test (Instron 4302) of ribs of piglets given Ala-Gln or AKG orally. It is filed as in vivo, pig. The protocol: as §1, §2, §3, §4
The test system of assay [3] is humerus and femur. As to the kind of experiment: Architectural and geometric properties of humerus and femur of piglets. Format: in vivo, pig. The settings on record: piglets at 35 days of postnatal life; 0.4 g/kg b.w. oral once a day; mean ± SEM. How it is done:
as §1, §2, §3
(§5) Architectural and geometric properties of bone were estimated based on measurements of horizontal and vertical cross section as well as interior and exterior diameter of the bone.
(§6) Mean relative wall thickness (MRWT) expresses the ratio of wall to lumen measures and serves as an indicator in the process of architectural adaptation of bone to physiological stress during the growth of the body. When the lumen increases with unchanged wall thickness the MRWT decreases but bone resistance to strain increases.

For assay [4], the system named is ribs. The assay can be described thus: Architectural and geometric properties of ribs of piglets. It is filed as in vivo, pig. Conditions: piglets at 35 days of postnatal life; 0.4 g/kg b.w. oral once a day; mean ± SEM. How it is done: as §1, §2, §3, §5, §6
The subject of assay [5] is femur. The assay can be described thus: Femur bone mineral density in intact, shame operated and ovariectomized rats given AKG in drinking water. Format: in vivo, Wistar rat. The settings on record: in all three groups (INT, SHO, OVX); 60 days of drinking water with AKG; p<0.01 in all groups.
Source text: 60 female Wistar rats at the age of 2 months and with an initial bodyweight of 200 g are used.
The rats are divided into three groups (n=20), where Group 1 is shame operated, Group 2 is ovariectomized and Group 3 is intact, i.e. not operated at all.
20 of the rats are shame-operated (SHO), where the ovaries are exteriorised and replaced intact.
The second group of ovariectomized rats (OVX) are submitted to ovariectomy from a dorsal approach.
Six months after ovariectomy, the animals from group 1 and 2, are divided into two additional sub-groups; one placebo and one experimental group.
After 60 days with placebo and experimental drinking water the rats are anaesthetised in CO2 and femur isolated for further analysis of bone mineral density.
A short description of assay [6]: Gain of bodyweight of piglets during postnatal life. Format: in vivo, pig. How it is done: as §1, §2, §3
Assay [7] concerns right femur. The assay can be described thus: Bone mineral density (DEXA) of the right femur of piglets. Format: in vivo, pig. The settings on record: right femur proximal and distal metaphysis, 21 and 35 days (FIG. 17, 18).
Procedure: (§7) Bone mineral density (BMD) was analysed by DEXA (Dual Energy X-ray Absorptiometry) using LUNAR apparatus.
Assay [8] concerns ulna bone. The settings on record: group A, 0.8 g/kg body weight oral.
Procedure: During general anesthetic surgery, the ulnar is broken and optionally denervated. On the first day after operation saline, AKG or Ala-Gln is administered orally at a dose of 0.8 g/kg body weight in 2 ml.
After the experimental period, the turkeys will be weighed and sacrified in order to measure bone mineral density (BMD).
as §7
[9] abbreviates: piglets at 35 days of postnatal life, 0.4 g/kg b.w. oral once a day, mean ± SEM.

Where two headings read alike, the source gives them in different places. Marks after values point to notes of the source that are not given here. Residues, ends and D or L forms follow the SMILES beside them.

For `O=C(O)CCC(=O)C(=O)O` [AKG, alpha-ketoglutaric acid], in assay [1], the “Bone maximum elastic strength (Wy) femur” value was found to be 1042.9 ± 73.66 N, the “Bone maximum elastic strength (Wy) humerus” value is 726.0 ± 37.73 N, the “Bone ultimate strength (Wf) femur” value turned out to be 1123.0 ± 75.09 N and the “Bone ultimate strength (Wf) humerus” value amounted to 857.6 ± 45.42 N. The “Yielding stress of the 5th rib” value in assay [2] (35-days-old piglets, versus control, FIG. 11) is reported as “significant increase”. In assay [2] (setting [9]), the “Bone maximum elastic strength (Wy) (ribs 4-9)” value stood at 522.5 ± 17.97 N, the “Moment of ultimate strength ribs (4-9)” value was 737.445 ± 23.85 N and the “Ultimate strength (Wf) (ribs 4-9)” value was 585.1 ± 18.5 N. Further, in assay [3], the “Cross-sectional area (A) femur” value is recorded as 64.7 ± 3.82* mm^2, the “Cross-sectional area (A) humerus” value is listed as 52.7 ± 4.1* mm^2, the “Second moment of inertia (Ix) femur” value is recorded as 696.5 ± 48.7* mm^4 and the “Second moment of inertia (Ix) humerus” value is 459.4 ± 59.42* mm^4. Also, in assay [4], the “Cross sectional area (A) (ribs 4-9)” value is on record as 10.52 ± 0.35* mm^2, the “MRWT (ribs 4-9)” value came out at 0.60 ± 0.026 and the “Second moment of inertia (ribs 4-9)” value is given as 15.42 ± 0.93* mm^4. For the same compound, in assay [5], the “BMD, difference between AKG treated rats and placebo treated rats” value was “about 10%”. Moreover, the “Bodyweight of the piglets versus control group and Ala-Gln group” value in assay [6] (p>0.01 in comparison to Ala-Gln as printed) was “more dramatic”. The “Bone mineralization versus piglets receiving placebo” value in assay [7] was “higher”. The “BMD of the ulna bone, difference compared to saline treated turkeys” value in assay [8] (left wing control (intact), p<0.01) was 25%. The “BMD of the ulna bone, difference compared to saline treated turkeys” value in assay [8] (right wing experimental (neurectomized, fracture of the ulnae), p<0.055) was “about 11%”.

In the case of `C[C@H](N)C(=O)N[C@@H](CCC(N)=O)C(=O)O` [Ala-Gln, L-alanyl-L-glutamine, reference compound] (H-Ala-Gln-OH), in assay [1], the “Bone maximum elastic strength (Wy) femur” value is 1016.8 ± 46.68 N, the “Bone maximum elastic strength (Wy) humerus” value is recorded as 638.7 ± 9.91 N and the “Bone ultimate strength (Wf) humerus” value is recorded as 743.0 ± 15.71∇ N. Also, in assay [3], the “Mean relative wall thickness (MRWT) femur” value is listed as 0.88 ± 0.12, the “Mean relative wall thickness (MRWT) humerus” value is 0.64 ± 0.07 and the “Second moment of inertia (Ix) humerus” value was 368.4 ± 24.31* mm^4. Besides, in assay [4], the “MRWT (ribs 4-9)” value amounted to 0.70 ± 0.038. Also, the “Bodyweight difference (control group less than Ala-Gln treated group)” value in assay [6] (day 14, 0.4 g/kg b.w. oral) is reported as “about 690 g”. The “Bodyweight difference (control group less than Ala-Gln treated group)” value in assay [6] (day three, 0.4 g/kg b.w. oral) is listed as “about 96 g”.
